Assay results as given in article PMC12123601, “Light-Induced, Lysine-Targeting Irreversible Covalent Inhibition of the Human Oxygen Sensing Hydroxylase Factor Inhibiting HIF (FIH)” (Journal of the American Chemical Society, 2025).
Like-named read-outs stand apart in the source and are kept apart here.

Target: T1, FIH^K106A (Homo sapiens, UniProt Q9NWT6, K106A)
T1 construct: encoding for full-length FIH with an N-terminal His6 tag or for FIH (K106A) with an N-terminal His6 tag; His6 (N); host or cells: Escherichia coli BL21
T1 sequence (Q9NWT6 whole entry K106A): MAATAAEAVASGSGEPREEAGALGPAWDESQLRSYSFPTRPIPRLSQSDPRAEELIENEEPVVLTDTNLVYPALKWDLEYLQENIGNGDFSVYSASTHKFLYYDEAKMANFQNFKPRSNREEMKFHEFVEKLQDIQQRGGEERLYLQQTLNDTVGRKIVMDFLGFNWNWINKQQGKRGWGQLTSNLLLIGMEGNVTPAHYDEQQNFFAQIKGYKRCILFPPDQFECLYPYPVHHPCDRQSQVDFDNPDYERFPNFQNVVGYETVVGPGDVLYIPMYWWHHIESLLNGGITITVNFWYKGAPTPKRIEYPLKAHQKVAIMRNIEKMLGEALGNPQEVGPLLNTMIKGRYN
Assay: Affinity-based fluorescence polarization (FP) assay with the FIH K106A variant, without and with irradiation
Type: binding
Details: for Ki: read-out: Binding affinity to FIH^K106A: Ki
Text: 4 (A) Light-induced click conjugation between NBA-ZG-2291 and FIH protein. (B) Light-induced binding affinity of NBA-ZG-2291 to FIH^ WT . (C) Light-induced binding affinity of NBA-ZG-2291 to FIH^ K106A . […] TEXT PRINTED IN THE PICTURE: (B) NBA-ZG-2291: Binding affinity to FIH^WT: Ki (nM): 414 ± 14 (Irradtion time (min): 0); Binding affinity to FIH^WT: Ki (nM): 74.1 ± 1.6 (Irradtion time (min): 15); Binding affinity to FIH^WT: Ki (nM): 46.7 ± 1.4 (Irradtion time (min): 30); Binding affinity to FIH^WT: Ki (nM): 33.2 ± 0.6 (Irradtion time (min): 60); Binding affinity to FIH^WT: Ki (nM): 30.2 ± 2.0 (Irradtion time (min): 90); Binding affinity to FIH^WT: Ki (nM): 32.1 ± 0.7 (Irradtion time (min): 120) | (B) Neg-1: Binding affinity to FIH^WT: Ki (nM): 423 ± 7 (Irradtion time (min): 0); Binding affinity to FIH^WT: Ki (nM): 408 ± 30 (Irradtion time (min): 15); Binding affinity to FIH^WT: Ki (nM): 459 ± 32 (Irradtion time (min): 30); Binding affinity to FIH^WT: Ki (nM): 427 ± 17 (Irradtion time (min): 60); Binding affinity to FIH^WT: Ki (nM): 396 ± 29 (Irradtion time (min): 90); Binding affinity to FIH^WT: Ki (nM): 428 ± 15 (Irradtion time (min): 120) | (B) Neg-2: Binding affinity to FIH^WT: Ki (nM): 742 ± 65 (Irradtion time (min): 0); Binding affinity to FIH^WT: Ki (nM): 799 ± 69 (Irradtion time (min): 15); Binding affinity to FIH^WT: Ki (nM): 758 ± 13 (Irradtion time (min): 30); Binding affinity to FIH^WT: Ki (nM): 744 ± 30 (Irradtion time (min): 60); Binding affinity to FIH^WT: Ki (nM): 788 ± 36 (Irradtion time (min): 90); Binding affinity to FIH^WT: Ki (nM): 786 ± 35 (Irradtion time (min): 120) | (C) NBA-ZG-2291: Binding affinity to FIH^K106A: Ki (nM): 442 ± 12 (Irradtion time (min): 0); Binding affinity to FIH^K106A: Ki (nM): 427 ± 22 (Irradtion time (min): 15); Binding affinity to FIH^K106A: Ki (nM): 426 ± 7 (Irradtion time (min): 30); Binding affinity to FIH^K106A: Ki (nM): 420 ± 11 (Irradtion time (min): 60); Binding affinity to FIH^K106A: Ki (nM): 418 ± 5 (Irradtion time (min): 90); Binding affinity to FIH^K106A: Ki (nM): 424 ± 12 (Irradtion time (min): 120) | (C) Neg-1: Binding affinity to FIH^K106A: Ki (nM): 271 ± 14 (Irradtion time (min): 0); Binding affinity to FIH^K106A: Ki (nM): 275 ± 15 (Irradtion time (min): 15); Binding affinity to FIH^K106A: Ki (nM): 268 ± 25 (Irradtion time (min): 30); Binding affinity to FIH^K106A: Ki (nM): 266 ± 22 (Irradtion time (min): 60); Binding affinity to FIH^K106A: Ki (nM): 264 ± 41 (Irradtion time (min): 90); Binding affinity to FIH^K106A: Ki (nM): 270 ± 3 (Irradtion time (min): 120) | (C) Neg-2: Binding affinity to FIH^K106A: Ki (nM): 567 ± 37 (Irradtion time (min): 0); Binding affinity to FIH^K106A: Ki (nM): 548 ± 61 (Irradtion time (min): 15); Binding affinity to FIH^K106A: Ki (nM): 521 ± 50 (Irradtion time (min): 30); Binding affinity to FIH^K106A: Ki (nM): 627 ± 17 (Irradtion time (min): 60); Binding affinity to FIH^K106A: Ki (nM): 565 ± 10 (Irradtion time (min): 90); Binding affinity to FIH^K106A: Ki (nM): 552 ± 38 (Irradtion time (min): 120) […]
To further verify the covalent binding between NBA-ZG-2291 and Lys106, the FIH^ K106A variant was produced and purified.
3. Experimental procedures
3.1 Fluorescence polarization (FP) assays1 with FIHWT and FIHK106A pET28a vectors encoding for full-length FIH with an N-terminal His6 tag or for FIH (K106A) with an N-terminal His6 tag were purchased from Nanjing Zoonbio Biotechnology. Both the FIHWT and FIHK106A protein were expressed from the respective plasmid in Escherichia coli BL21 at 20 °C for 16 h. E. coli cells were lysed and the lysate were clarified by centrifugation. His6-tagged FIHWT or FIHK106A was purified on a HisTrap affinity column (GE Healthcare) by elution with an imidazole gradient. The final purified proteins were stored in PBS buffer.
FP assays were carried out using 384 -well plates (#3575, Corning); the polarization signal was measured using a SPARK Multi-Mode Microplate Reader (Tecan). […]

Effect of irradiation time on binding affinity for the FIH^K106A variant (FP assay, varying irradiation times): remained unchanged
Ki (irradiation time 0 min): 442 ± 12 nM
Ki (irradiation time 15 min): 427 ± 22 nM
Ki (irradiation time 30 min): 426 ± 7 nM
Ki (irradiation time 60 min): 420 ± 11 nM
Ki (irradiation time 90 min): 418 ± 5 nM
Ki (irradiation time 120 min): 424 ± 12 nM
Structure (SMILES): O=C(O)CNC(=O)c1ncc(-c2cc(-c3ccc(CO)c([N+](=O)[O-])c3)no2)cc1O [NBA-ZG-2291]
